Laboratory results reported in article PMC12654037, “Norditerpene Natural Products from Subterranean Fungi with Anti-Parasitic Activity” (Microorganisms, 2025).
Entries after “also recorded” stand apart in the source; their conditions may differ.

Key:
[1] = system: G. lamblia WBC6 and CBG99 trophozoites; experiment: Giardia lamblia trophozoite growth inhibition assay; assay type: cell-based
Description: Compound inhibition assay against Giardia lamblia WBC6 and CBG99 trophozoites: Biological replicates of growth inhibition assays were performed using wild-type G. lamblia WBC6 and G. lamblia CBG99 trophozoites at 37 °C under reduced oxygen conditions in a sealed 0.5 mL airtight sterile tube (USA Scientific, Ocala, FL, USA), following the susceptibility assay described below. G. lamblia trophozoites were grown in TYI-S-33 medium supplemented with 10% bovine serum and 0.05 mg/mL bovine bile, as previously described. A 3-fold serial concentration of pure compounds starting at 29 µM was screened against 75,000 cells/mL of parasites in modified TYI-S-33 medium with a final dimethyl sulfoxide (DMSO) concentration of 0.14%. Metronidazole was run in parallel at a final highest concentration of 66.7 µM and 3-fold subsequent serial dilutions. The untreated negative control contained 0.14% of DMSO. Sealable test tubes filled to its maximum volume of 700 µL were used to perform this assay. The test tubes were incubated at 37 °C for 72 h. After incubation, the tubes were chilled on ice, and the reaction was transferred to 96-well plates. In the plate, 50 µL of an ATP binding luminescence marker, CellTiter-Glo (Promega, Madison, WI, USA) or 10 µL of 2.5 mg/mL d-luciferin (GoldBio, St Louis, MO, USA) was added to each well and allowed to develop at room temperature for 10 min [31, 36]. The assay was read and analyzed using an EnVision Plate Reader (Perkin Elmer, Waltham, MA, USA). Response curves and EC50 values (the concentration at which 50% of G. lamblia trophozoite growth was inhibited) were calculated using GraphPad Prism (GraphPad, LaJolla, CA, USA).

[2] = Microsomal stability assay, mouse; conditions: microsomes, pH 7.4
Description: Microsomal stability assay. The in vitro microsomal stability assay was conducted in duplicate in commercially available mouse or human liver microsomes (Sekisui XenoTech, Kansas City, KS, USA), which were supplemented with nicotinamide adenine dinucleotide phosphate (NADPH) as a cofactor. […] The reaction was initiated by the addition of 1 mmol/L NADPH, followed by incubation at 37 °C. A negative control was performed in parallel without NADPH to reveal any chemical instability or non-NADPH dependent enzymatic degradation for each compound. […] At various time points (0, 5, 15, 30, and 60 min), a 40 µL of reaction aliquot was taken and quenched with 120 µL of acetonitrile containing 0.1% formic acid. The samples were then vortexed and centrifuged at 15,000 rpm for 5 min at 4 °C. The supernatants were collected and analyzed by LC-MS/MS to determine the in vitro metabolic half-life (t1/2).

[3] = PAMPA membrane permeability assay; assay type: in vitro ADME
Description: PAMPA membrane permeability assay. The membrane permeability of selected compounds was evaluated using the Corning® BioCoat^TM Pre-coated PAMPA Plate System (catalog. No. 353015, Corning, Glendale, AZ, USA). The pre-coated plate assembly, which was stored at −20 °C, was thawed for 30 min at room temperature. The permeability assay was carried out in accordance with the manufacturer’s protocol. Briefly, the 96-well filter plate, pre-coated with lipids, was used as the permeation acceptor and a matching 96-well receiver plate was used as the permeation donor. […] At the end of the incubation, the plate was separated, and the final concentrations of compounds in both donor wells and acceptor wells were analyzed using LC-MS/MS. Permeability of the compounds was calculated using Equation (1): Pe = {−ln [1 − CA(t)/Ceq]}/[A × (1/VD + 1/VA) × t](1) where A = filter area (0.3 cm^2), VD = donor well volume (0.3 mL), VA = acceptor well volume (0.2 mL), t = incubation time (seconds), CA(t) = compound concentration in acceptor well at time t, and CD(t) = compound concentration in donor well at time t. Ceq was calculated using Equation (2): Ceq = [CD(t) × VD + CA(t) × VA]/(VD + VA)(2) […]

[4] = system: C. parvum oocysts; experiment: C. parvum oocyst excystation assay; assay type: cell-based, Cryptosporidium parvum; conditions: 7.5 µM, 1-hour incubation
Description: (§1) C. parvum excystation and invasion assays: Oocyst excystation rates in the presence of compounds were determined as previously described. The C. parvum invasion inhibition assays were conducted in two formats. In the first format, described previously, HCT-8 cells were seeded on glass slides (CELLTREAT Scientific Product, Pepperell, MA, USA) and allowed to grow to confluence. Oidiolactone A was added to the cells for one hour. TrtE and DMSO were run in parallel as positive and negative controls, respectively. The cell monolayers were then infected with 1.2 × 10^6 wild-type C. parvum oocysts. After 3 h of incubation at 37 °C, the slides were washed five times with 111 mM D-galactose, fixed with 4% paraformaldehyde, and permeabilized with 0.25% Triton-X. C. parvum sporozoites were detected with rabbit anti-gp40 [39] and Alexa Fluor 594 goat anti-rabbit antibodies. The HCT-8 cell nuclei were stained with 0.09 mM Hoechst. Slides were coded to enable unbiased counting, and sporozoites from at least 10 randomly selected fields were counted in each sample at 100× magnification (Zeiss® Axioscope 5). The percentage of invaded parasites was determined using the following equation: % Invaded parasites = [parasitescompound/parasitesDMSO] × 100. This experiment was run in duplicate with two biological replicates.

[5] = system: C. parvum sporozoites; experiment: C. parvum invasion inhibition assay; assay type: cell-based, Cryptosporidium parvum; conditions: 7.5 µM, 3 h infection, luciferase and IFA formats
Description: as §1, with “replicates. […]” for “replicates.”

[6] = system: HuF fibroblast cell line; conditions: cited from earlier work

CO[C@H]1OC(=O)C=C2[C@@]13O[C@@H]3[C@H]1OC(=O)[C@@]3(C)CCC[C@@]2(C)[C@@H]13 [compound 1, oidiolactone A]
activity against G. lamblia (no activity up to) ([1]; 72 h): > 29 µM
EC50 ([1]; Giardia duodenalis, read-out: EC50 G. lamblia): > 30 µM
half-life at 1 µmol/L [2]: 1.84 ± 0.0717 h
Papp at 5 h, 100 μmol/L ([3]; PAMPA, 25 °C, 5 h, 100 μmol/L, read-out: PAMPA Pe): 11 ± 1.3 ×10⁻⁶ cm/s
PAMPA permeability class ([3]; cutoff Pe 1.5 × 10^−6 cm/s): high passive permeability
effect on oocyst excystation [4]: no effect
effect on parasite invasion [5]: no effect; also recorded: did not exhibit any effect
cytotoxicity against human fibroblast [6]: no cytotoxicity observed
TC50 HuF (sub-confluent) ([6]; sub-confluent, ref Rusman et al. 2020 [25]): > 30 µM
